Measured values: patent publication US10703784B2, “Antigens and epitopes derived from Mycobacterium tuberculosis” (priority 2011, dated 2020)
Values joined by “and” are separate entries in the source; they are usually repeats but may differ in a detail not shown here. Identical values can stand only once. Like-named read-outs stand apart in the source and are kept apart here.

System: PBMCs from LTBI donors (IFN-γ production)
Type: cell-based, human
Conditions: for Resp. freq.: fraction of 28 LTBI donors responding to epitopes of the antigen; for Resp. freq. / Total SFC: ex vivo IFN-γ ELISPOT; for Total SFC: total spot-forming cells, LTBI donors
[1] = individual MTB epitope peptide, one value per responding LTBI donor

| Molecule | SFC [1] | further results |
| --- | --- | --- |
| EHFGHERYDAFFSLA | 66.7 |  |
| Rv3022c: MTB protein, novel CD4 T cell antigen; PE/PPE, Island 2 |  | Resp. freq.: 18%; Total SFC: 109 SFC |
| SQVIEAVNLFRANVI | 33.3 |  |
| AGISSLIIDPNPMFV | 88.3 |  |
| RARQGFRDIEFHPTI | 45.0 and 28.3 |  |
| APPNLIRAILRAPVD | 30.0 |  |
| FFGQNAPAIAAIEAA | 20.0 and 21.7 |  |
| Rv2853: MTB protein, novel CD4 T cell antigen; PE/PPE |  | Resp. freq.: 11%; Total SFC: 85 SFC |
| EIYLNTFRHLYGLDC | 25.0 |  |
| AHLIHFAAANLRNPG | 30.0 |  |
| EVNIKILIDSLVSAG | 201.7 |  |
| DPINEFFLANTGRPL | 66.7 |  |
| TDNGAMIAAFAAQLV | 203.3 and 30.0 |  |
| DSTVITDGDIVNIDV | 31.7 |  |
| AGTLSTFFGVPLVLT | 21.7 |  |
| CRRYEVLLIFDEIAT | 65.0 |  |
| ARVFLDSVLPALGEE | 38.3 |  |
| LVAQEAAAAGTPLVT | 23.3 |  |
| HTVLVATNFFGINTI |  | SFC: 331.7 |
| AGYPAELAYFEVLHE | 23.3 |  |
| ADKNPLFLDEQLTRA | 45.0 |  |
| FRVVISSRFGDIFRG | 20.0 |  |
| DTEVYLDAASLSPFV | 266.7 |  |
| DLDSYLVEITAEVLR | 23.3 |  |
| MAKTIAYDEEARRGL | 38.3 and 56.7 |  |

| Molecule | SFC [1] | further results |
| --- | --- | --- |
| DVTIRFRRFFSRLQR | 50.0 |  |
| AAFDYADGAAEDELS | 21.7 |  |
| GSTINAANAAAALPT | 36.7 and 190.0 |  |
| NRASLMQLISTNVFG | 21.7 |  |
| TVAWTMLGVALSAYE | 50.0 and 25.0 |  |
| ALLWLADQVDAALEK | 48.3 |  |
| ALRILVYSDNVQTRE | 91.7 |  |
| DTQSMIVTDHRYVPA | 33.3 |  |
| AVVVLKRLPDALADG | 25.0 |  |
| TGIFGLVLVICVVLI | 35.0 |  |
| APWQQVLRNLGIDIG | 96.7 |  |
| ALEMFYDDDADLSII | 25.0 |  |
| QTLVYKGMLTTPQLK | 40.0 |  |
| LVLVIDDEPQILRAL | 81.7 |  |
| ESGASYAARDALAAA | 45.0 |  |
| ERYVGLYLPFLDMSF | 23.3 |  |
| AVLEDPYILLVSSKV | 21.7 |  |
| CRGYDVVILDRYVAS | 21.7 |  |
| QAARGIRPLFDDITE | 21.7 |  |
| AGGFGGAGAGIANFL | 20.0 |  |
| EHIHRPNTNNVGPII | 65.0 |  |
| DDIPRVLAEAFHIAA | 31.7 |  |
| ESVFAATVAELESLI | 36.7 |  |
| ADVLTMKAVRAATAL | 41.7 |  |
| KMAPVLRQIYDQMAE | 66.7 |  |

| Molecule | SFC [1] | further results |
| --- | --- | --- |
| AHESLCFAGANLIPL | 25.0 |  |
| DMTKIVGLRARAKAA | 35.0 |  |
| AAHAGEYGQMVTLRG | 23.3 |  |
| GSAENFSVVEALADS | 138.3 and 20.0 |  |
| SILDMRQLFDGIDLS | 26.7 |  |
| ASVGSYAAAEAANAS | 38.3 |  |
| QAVLTATNFFGINTI | 341.7 |  |
| AVSIGILLSLIAPLG | 55.0 |  |
| AVITELIAMLRHHHI | 40.0 |  |
| GAYAAAEAANVSAAQ | 176.7 |  |
| AAAQASAAAAAYEAA | 20.0 |  |
| ASMSMAAAASPYVGW | 78.3 |  |
| CSEDLLYLSDLDFDV | 33.3 |  |
| YLAWLSTAAAQAEQA | 145.0 and 100.0 |  |
| DPVKGADEVVAFAEE | 813.3 |  |
| DVIHAFWVPEFLFKR | 158.3 |  |
| APVVILAHGFPELAY | 23.3 |  |
| EMLSMLRAMLAPESL | 40.0 |  |
| LDWFCLFSSAAALTG | 23.3 |  |
| AQTSQFVMAMINYED | 26.7 |  |
| IGSSIGAANAAAAGS | 45.0 |  |
| AVLLEKIVADEEEHI | 26.7 and 28.3 |  |
| AVDAVFVGSCTNGRI | 46.7 |  |
| AGAMGAYAAAEAANA | 111.7 |  |
| PPEVNSARVFAGAGS | 38.3 and 31.7 |  |

| Molecule | SFC [1] | further results |
| --- | --- | --- |
| AQEYQALSAQAAAFH | 41.7 |  |
| ESALFFIGVLIVALL | 55.0 |  |
| QRPRMLYDYFHQLFA | 141.7 |  |
| AQIIHRITATARHPG | 53.3 |  |
| GQQYQAMSAQAAAFH | 50.0 |  |
| SEFNEVFFNDVFVPD | 41.7 |  |
| VDVEDGRVIVDEYQR | 20.0 |  |
| ELADLIEFARTVNEE | 43.3 |  |
| HPQQFIYAGSLSALL | 35.0 |  |
| SLAVKTFEDLFAELG | 23.3 |  |
| FSLVNFFDAQVGPLS | 43.3 |  |
| ARFHQQFVQALTASV | 35.0 |  |
| CLGSHLARLELTLLV | 91.7 |  |
| LLSTRGYITAEKIRS | 35.0 |  |
| NPFPFLRQIIANQQV | 26.7 |  |
| LRLLVIALKHNVILN | 31.7 |  |
| AAVIVGSGRIASLYV | 23.3 |  |
| AMNEAFVAMLGASAD | 31.7 |  |
| Rv0289: MTB protein, novel CD4 T cell antigen; Cell wall and cell processes, Island 1, Esx-3 |  | Resp. freq.: 29%; Total SFC: 2298 SFC |
| EQMLIDDGILLRKYW | 178.3 |  |
| ALVEEYLRGLRQAAG | 30.0 |  |
| RVIEDALRFYFESHE | 141.7 |  |
| SAAGSYAAAEAANAS | 91.7 and 21.7 |  |
| GFTIANHNAAAVGEI | 140.0 |  |
| FLMSVGALIIGWLLQ | 26.7 |  |

| Molecule | SFC [1] | further results |
| --- | --- | --- |
| ENFFMFIAEEVREYL | 23.3 and 65.0 |  |
| Rv1243c: MTB protein, novel CD4 T cell antigen; PE/PPE |  | Resp. freq.: 11%; Total SFC: 114 SFC |
| LPLLVPLRAIPLLGN | 20.0 |  |
| RVLLAGWEQFDEPVD | 101.7 |  |
| ITPDEGAYAFEALLR | 28.3 |  |
| EGGNQIVQYLVAQKI | 25.0 |  |
| QAFRSRFGENFFYIL | 31.7 |  |
| MDYFIRMWNQAALAM | 46.7 |  |
| LTVDAGAYASAEAAN | 31.7 and 58.3 |  |
| QLSAEYASTAAELSG | 26.7 |  |
| IGLVLIAVLVFVPRV | 38.3 |  |
| EKMRVAGRIAAGALA | 20.0 |  |
| ETLYWLAQPGIRESI | 31.7 |  |
| ALPRLLRRLVIMGGM | 128.3 |  |
| LYRPGLVHIYHALTW | 28.3 |  |
| AELFRLQTEFVKLQE | 85.0 |  |
| EPGDIIIDGGNALYT | 35.0 |  |
| Rv3615c: MTB antigen functionally linked to Esx-1 (Millington et al., 2011); single antigen, not part of an antigenic island (protein, UniProt P9WJD7 2-103, looked up) ESX-1 secretion-associated …: TENLTVQPERLGVLASHHDNAAVDASSGVEAAAGLGESVAITHGPYCSQFNDTLNVYLTAHNALGSSLHTAGVDLAKSLRIAAKIYSEADEAWRKAIDGLFT |  | recognition by LTBI donors (result in words): prevalently recognized |
| Rv0294: MTB protein, novel CD4 T cell antigen; Intermediary metabolism and respiration, Island 1 (protein, listed as Mycobacterium tuberculosis) MWDPDVYLAFSGHRNRPFYELVSRVGLERARRVVDLGCGPGHLTRYLARRWPGAVIEALDSSPEMVAAAAERGIDATTGDLRDWKPKPDTDVVVSNAALHWVPEHSDLLVRWVDELAPGSWIAVQIPGNFETPSHAAVRALARREPYAKLMRDIPFRVGAVVQSPAYYAELLMDTGCKVDVWETTYLHQLTGEHPVLDWITGSALVPVRERLSDESWQQFRQELIPLLNDAYPPRADGSTIFPFRRLFMVAEVGGARRSGG |  | Resp. freq.: 18%; Total SFC: 1368 SFC |
| Rv3330: MTB protein, novel CD4 T cell antigen; Cell wall and cell processes (protein, listed as Mycobacterium tuberculosis) MAFLRSVSCLAAAVFAVGTGIGLPTAAGEPNAAPAACPYKVSTPPAVDSSEVPAAGEPPLPLVVPPTPVGGNALGGCGIITAPGSAPAPGDVSAEAWLVADLDSGAVIAARDPHGRHRPASVIKVLVAMASINTLTLNKSVAGTADDAAVEGTKVGVNTGGTYTVNQLLHGLLMHSGNDAAYALARQLGGMPAALEKINLLAAKLGGRDTRVATPSGLDGPGMSTSAYDIGLFYRYAWQNPVFADIVATRTFDFPGHGDHPGYELENDNQLLYNYPGALGGKTGYTDDAGQTFVGAANRDGRRLMTVLLHGTRQPIPPWEQAAHLLDYGFNTPAGTQIGTLIEPDPSLMSTDRNPADRQRVDPQAAARISAADALPVRVGVAVIGALIVFGLIMVARAMNRRPQH |  | Resp. freq.: 29%; Total SFC: 1595 SFC |
| Rv1788: MTB protein, novel CD4 T cell antigen; PE/PPE (protein, listed as Mycobacterium tuberculosis) MSFVTTQPEALAAAAGSLQGIGSALNAQNAAAATPTTGVVPAAADEVSALTAAQFAAHAQIYQAVSAQAAAIHEMFVNTLQMSSGSYAATEAANAAAAG |  | Resp. freq.: 25%; Total SFC: 347 SFC |
| Rv1791: MTB protein, novel CD4 T cell antigen; PE/PPE (protein, listed as Mycobacterium tuberculosis) MSFVTTQPEALAAAAANLQGIGTTMNAQNAAAAAPTTGVVPAAADEVSALTAAQFAAHAQMYQTVSAQAAAIHEMFVNTLVASSGSYAATEAANAAAAG |  | Resp. freq.: 25%; Total SFC: 355 SFC |
| Rv3125c: MTB protein, novel CD4 T cell antigen; PE/PPE (protein, listed as Mycobacterium tuberculosis) MVLGFSWLPPEINSARMFAGAGSGPLFAAASAWEGLAADLWASASSFESVLAALTTGPWTGPASMSMAAAASPYVGWLSTVASQAQLAAIQARAAATAFEAALAATVHPTAVTANRVSLASLIAANVLGQNTPAIAATEFDYLEMWAQDVAAMVGYHAGAKSVAATLAPFSLPPVSLAGLAAQVGTQVAGMATTASAAVTPVVEGAMASVPTVMSGMQSLVSQLPLQHASMLFLPVRILTSPITTLASMARESATRLGPPAGGLAAANTPNPSGAAIPAFKPLGGRELGAGMSAGLGQAQLVGSMSVPPTWQGSIPISMASSAMSGLGVPPNPVALTQAAGAAGGGMPMMLMPMSISGAGAGMPGGLMDRDGAGWHVTQARLTVIPRTGVG |  | Resp. freq.: 21%; Total SFC: 125 SFC |
